Where two headings read alike, the source gives them in different places.
Experiments:
[1] = Stability of lapatinib in QC samples, BP samples and standard solutions; format: physicochemical; conditions: for stability, deviation: low and high QC samples
Text: Data acquisition and processing were controlled with Analyst 1.5.2 software (Sciex, Framingham, USA).

[2] = Lapatinib pharmacokinetics and uptake in rat cerebrospinal fluid (CSF); format: in vivo, rats; conditions: for MRT last: read-out: MRT0-t
Method: This study was conducted on rats, which are a promising model to predict P-gp-based drug-drug interactions at the human BBB [15]. The animals were allowed to acclimate for one week before the beginning of the experiments. Adult male Wistar-strain rats (weight 470–525 g) were used in the study. The animals were maintained under standard breeding conditions with a 12/12 h light-dark cycle (lights on at 6.00 a.m., lights off at 6.00 p.m.) at constant room temperature (23 ± 2 °C), relative humidity (55 ± 10%) and ad libitum access to food and water. The experimental protocol for this study was reviewed and approved by the Local Ethics Committee. To obtain consistent data, the study was based on the required minimum number of animals and observation time. […] Three rats were used at each time point (n = 3). In total, the research was conducted on 66 animals (n = 33 in the experimental group and n = 33 in the control group).
Elacridar was freshly dissolved in a vehicle at an initial concentration of 20 mg/mL. […] A volume of 80 μL of blood was collected from each rat by cutting off a piece of its tail. The blood samples were collected into heparinized test tubes at the following time points: before treatment (time 0), 5 min, 30, min, and 1, 2, 3, 4, 6, 8, 12, and 24 h after administration of the drugs, and they were immediately centrifuged at 2880 g for 10 min at 4 °C. The anaesthetized rats (anaesthetized by intramuscular administration of 50 mg/kg ketamine and 10 mg/kg xylazine) were prepared for cisterna magna puncture. The hair over the puncture was removed and the skin was disinfected with alcohol. The animals were placed in a recumbent position with an elevated rear part of the body. The animals’ heads were slightly flexed and immobilized with the operator’s left hand. The space between the occiput rostrally and the atlas (C1) of the spinal column caudally was gently palpated with the left thumb. A 0.7 × 20 G needle with polyethylene tubing (Terumo Poland, Warsaw, Poland) was gently inserted at an approximate angle of 80–90° through the skin with the operator’s right hand into the midsagittal region. The moment that dura mater perforation was perceptible, a small amount of CSF was found in the needle tubing. To sample additional CSF, a 1 mL insulin syringe (Becton Dickinson, Warsaw, Poland) was used to collect 80–120 μL of CSF by very gentle aspiration. Only clear CSF was collected for further analysis. […] The animals’ brains were immediately dissected, washed in 0.9% NaCl and divided along the longitudinal axis. One of the brain hemispheres was again rinsed three times with 5 mL of 0.9% NaCl, weighed and homogenized with 0.9% NaCl (4 mL per 1 g of BT) in an Ultra-Turrax homogenizer (Witko, Łódź, Poland). The homogenate was then centrifuged at 4500 g for 10 min. All samples of the rat BP, CSF, and BT homogenate supernatant were stored at −80 °C until analysis.
The chromatographic analysis was conducted using a 1260 Infinity system (Agilent Technologies, Santa Clara, USA) equipped with a Kinetex® C18 column (50 × 4.6 mm, 2.6 μm, Phenomenex, Torrance, USA), which was maintained at 35 °C. The mobile phase consisted of 0.1% formic acid (v/v) in water with 5 mM ammonium formate (solvent A) and acetonitrile with 10% phase A (v/v, solvent B). The analyte and internal standard (IS, erlotinib) were eluted using a gradient run of 10 min as follows: 95% A at 0–2 min; 95%–5% A at 2–4 min; 5% A at 4–5 min; 5%–95% A at 5–6 min; 95% A at 6–10 min. The flow rate and injection volume were set at 0.7 mL/min and 10 μL, respectively. The needle was washed for 30 s in a mixture of acetonitrile, methanol, isopropanol, water, and formic acid (50:20:15:15:0.25, v/v/v/v/v).

[3] = as above; format: in vivo, rats; conditions: male, Wistar, po, 100 mg/kg, lapatinib p.o. 100 mg/kg alone, read-out: Clapatinib in CSF, single rat
[4] = parameters: method as in PMID 25547867; conditions: cited from earlier work
[5] = cerebrospinal fluid, lapatinib 100 mg/kg oral + 5 mg/kg elacridar (IE+L)
[6] = cerebrospinal fluid, lapatinib 100 mg/kg oral alone (IIL)
[7] = male, Wistar, rat, cerebrospinal fluid (CSF), po, 100 mg/kg, lapatinib p.o. 100 mg/kg alone, read-out: Clapatinib in CSF, S (medium value)
[8] = male, Wistar, rat, cerebrospinal fluid (CSF), po, 100 mg/kg, lapatinib p.o. 100 mg/kg alone, read-out: Clapatinib in CSF, single rat
[9] = male, Wistar, rat, cerebrospinal fluid, oral, lapatinib 100 mg/kg + elacridar, read-out: Clapatinib in CSF, S
[10] = male, Wistar, rat, cerebrospinal fluid, oral, lapatinib 100 mg/kg + elacridar, read-out: Clapatinib in CSF, single rat
[11] = male, Wistar, rat, cerebrospinal fluid, po, 100 mg/kg, cerebrospinal fluid, lapatinib 100 mg/kg oral + 5 mg/kg elacridar (IE+L)
[12] = male, Wistar, rat, cerebrospinal fluid, po, 100 mg/kg, lapatinib 100 mg/kg oral alone (IIL)

CS(=O)(=O)CCNCc1ccc(-c2ccc3ncnc(Nc4ccc(OCc5cccc(F)c5)c(Cl)c4)c3c2)o1 [lapatinib, N-{3-Chloro-4-[(3-fluorobenzyl)oxy]phenyl}-6-[5-({[2-(methylsulfonyl)ethyl]amino}methyl)-2-furyl]-4-quinazolinamine]
postpreparative stability, change in the concentration ([1]; BP samples and standard solutions, 24 h and 48 h in the autosampler at 4 °C): < 15%
stability, deviation ([1]; three freeze-thaw cycles at −80 °C): < 5%
stability, deviation ([1]; three months of storage at −80 °C): < 15%
AUC0-∞ increase by elacridar ([2]; CSF): 1.5 fold
Cmax increase in IE+L vs control ([2]; CSF): 2.4 fold
Kp decrease in IL+E group vs control ([2]; CSF): 42.9%
t0.5 longer in the presence of elacridar ([2]; CSF): 2.6 times
AUC0-t elevated in IE+L ([2]; CSF, IE+L vs IIL group): 61.2%
Cmax increase with elacridar ([2]; CSF, IE+L vs IIL group): 136.4%
AUMC0-t [2, 5]: 1620.02 ng × h^2/mL
AUMC0-∞ [2, 5]: 2725.51 ng × h^2/mL
AUMC0-t [2, 6]: 1257.21 ng × h^2/mL
AUMC0-∞ [2, 6]: 1767.90 ng × h^2/mL
Kp ([2]; male, Wistar, rat, CSF / plasma, oral, 100 mg/kg, IIL group, read-out: Cmax,CSF/Cmax,BP ratio): 0.012
Kp ([2]; male, Wistar, rat, CSF / plasma, oral, with elacridar 5 mg/kg intraperitoneally, 30 min before lapatinib, IE+L group, read-out: Cmax,CSF/Cmax,BP ratio): 0.026
concentration at 0.25 h ([2]; male, Wistar, rat, cerebrospinal fluid (CSF), po, 100 mg/kg, lapatinib p.o. 100 mg/kg alone, 0.25 h, read-out: Clapatinib in CSF, S (medium value)): 3.73 ng/mL
concentration at 1 h [2, 7]: 38.5 ng/mL
concentration at 1 h [2, 8]: 38.5 ng/mL
concentration at 2 h [2, 7]: 10.8 ng/mL
concentration at 2 h [2, 8]: 10.8 ng/mL
concentration at 3 h [2, 7]: 12.2 ng/mL
concentration at 3 h [2, 8]: 9.49 ng/mL
concentration at 4 h [2, 7]: 13.8 ng/mL
concentration at 4 h [2, 8]: 13.8 ng/mL
concentration at 6 h [2, 7]: 26.9 ng/mL
concentration at 6 h [2, 8]: 26.9 ng/mL
concentration at 8 h [2, 7]: 24.4 ng/mL
concentration at 8 h [2, 8]: 24.4 ng/mL
concentration at 12 h [2, 7]: 7.23 ng/mL
concentration at 0.5 h ([2]; male, Wistar, rat, cerebrospinal fluid, oral, lapatinib 100 mg/kg + elacridar, 0.5 h, read-out: Clapatinib in CSF, S): 40.7 ng/mL
concentration at 1 h [2, 9]: 30 ng/mL
concentration at 2 h [2, 9]: 75.7 ng/mL
concentration at 3 h [2, 9]: 51.2 ng/mL
concentration at 3 h [2, 10]: 45.6 ng/mL
concentration at 4 h [2, 9]: 91 ng/mL
concentration at 4 h [2, 10]: 91 ng/mL
concentration at 6 h [2, 9]: 4.27 ng/mL
concentration at 6 h [2, 10]: 4.27 ng/mL
concentration at 8 h [2, 9]: 1.03 ng/mL
concentration at 8 h [2, 10]: 1.03 ng/mL
concentration at 12 h [2, 9]: 2.62 ng/mL
concentration at 12 h [2, 10]: 2.62 ng/mL
concentration at 24 h [2, 9]: 2.84 ng/mL
concentration at 24 h [2, 10]: 2.84 ng/mL
k el ([2]; male, Wistar, rat, cerebrospinal fluid, po, 100 mg/kg): 6.39e-05 s⁻¹
AUC(0-inf) [2, 11]: 387 ng·h/mL
AUC(0-t) [2, 11]: 356 ng·h/mL
Cmax [2, 11]: 91 ng/mL
Tmax [2, 11]: 4 h
MRT last [2, 11]: 4.55 h
MRT last ([2]; male, Wistar, rat, cerebrospinal fluid, po, 100 mg/kg, cerebrospinal fluid, lapatinib 100 mg/kg oral alone (IIL)): 5.7 h
AUC(0-inf) [2, 12]: 252 ng·h/mL
AUC(0-t) [2, 12]: 221 ng·h/mL
Cmax [2, 12]: 38.5 ng/mL
Tmax [2, 12]: 1 h
Kp ([2]; male, Wistar, rat, cerebrospinal fluid, po, 100 mg/kg, read-out: Kp (tissue-to-plasma partition coefficient, AUC0-∞-tissue/AUC0-∞-plasma)): 0.007
concentration at 0.25 h [3]: 4.47 ng/mL
patients with BM responding to lapatinib therapy [4]: 2.6–6.0%

— PMC7211195 (Investigational New Drugs, 2019)
